US10988462B2, “Pyrazole compounds substituted with heteroaryl and pharmaceutical use thereof” (Japan Tobacco Inc., priority 2018, dated 2021)

Tests used:
[1] = system: Salmonella typhimurium TA98; test: Ames test (reverse mutation test), pre-incubation method, strain TA98; details: for Number of revertant colonies TA98: dose 62 μg/plate
Method: (§1) Ames Test (Reverse Mutation Test)
(§2) Metabolites 1 to 3 and Metabolites A to E were each tested herein. The purpose of this test is to evaluate the potential of each metabolite to induce reverse mutations in the standard strains of Salmonella typhimurium (TA98, TA1537, TA100, and TA1535) and Escherichia coli (WP2uvrA), in either the presence or absence of a rat liver metabolic activation system (S9 mix).
(§3) The solvent used herein was dimethyl sulfoxide (DMSO, 100 μL/plate).
(§4) The test was performed by the pre-incubation method with or without S9 mix. When the test was performed without S9 mix, sodium phosphate buffer solution (pH 7.4) was added.
(§5) 0.5 mL of S9 mix or 0.5 mL of 0.1 mol/L sodium phosphate buffer solution (pH 7.4), and 0.1 mL of the bacterial culture solution were added to a test tube containing 0.1 mL of the negative control formulation (DMSO alone), the metabolite, or the positive control formulation. The mixtures were pre-incubated at 37° C. for 20 minutes while shaking. After the pre-incubation period, 2 mL of top agar were added and the mixtures were vortex-mixed and seeded onto plates. Two plates per treatment were used. Each plate was incubated at 37±1° C. for 48 hours or more and the revertant colonies were counted. The mean number of revertant colonies for each treatment plate was then calculated. The presence or absence of growth inhibition due to any antibacterial effect of the test article and precipitation of the test article was observed grossly or under a stereomicroscope. […] Evaluation was based on mean values with no statistical comparisons being used.

[2] = system: Salmonella typhimurium TA1537; test: Ames test (reverse mutation test), pre-incubation method, strain TA1537; format: cell-based
Method: as §1, §2, §3, §4, §5

[3] = system: Salmonella typhimurium TA100; test: Ames test (reverse mutation test), pre-incubation method, strain TA100; format: cell-based
Method: as §1, §2, §3, §4, §5

[4] = system: Escherichia coli WP2uvrA; test: Ames test (reverse mutation test), pre-incubation method, strain WP2uvrA; format: cell-based
Excerpt: as §1
Two plates per treatment were used.

**Q.** How did the “Number of revertant colonies TA98” value ([1]; S9 mix +) turn out when Nc1cc(-c2cc(F)cc(OC(F)(F)F)c2)n(-c2cncc(C(F)(F)F)c2)n1 [Metabolite 3] was run?
**A.** The value was 38.

**Q.** And the “Number of revertant colonies TA98” value ([1]; S9 mix −)?
**A.** The value was 29.

**Q.** What about the “Number of revertant colonies TA1537” value ([2]; S9 mix +, dose 6.9 μg/plate) of the same compound?
**A.** The value was 13.

**Q.** And the “Number of revertant colonies TA1537” value ([2]; S9 mix +, dose 21 μg/plate)?
**A.** The value was 11.

**Q.** And the “Number of revertant colonies TA1537” value ([2]; S9 mix +, dose 62 μg/plate)?
**A.** The value was 12.

**Q.** And the “Number of revertant colonies TA1537” value ([2]; S9 mix +, dose 185 μg/plate)?
**A.** Its value is 12.

**Q.** What about the “Number of revertant colonies TA1537” value ([2]; S9 mix +, dose 556 μg/plate) of the same compound?
**A.** The value was 8.

**Q.** And the “Number of revertant colonies TA1537” value ([2]; S9 mix +, dose 1667 μg/plate)?
**A.** Its value is 3.

**Q.** What about the “Number of revertant colonies TA1537” value ([2]; S9 mix +, dose 5000 μg/plate) of the same compound?
**A.** Its value is 1.

**Q.** What about the “Number of revertant colonies TA1537” value ([2]; S9 mix −, dose 6.9 μg/plate) of the same compound?
**A.** The value was 8.

**Q.** What about the “Number of revertant colonies TA1537” value ([2]; S9 mix −, dose 21 μg/plate) of the same compound?
**A.** Its value is 7.

**Q.** What about the “Number of revertant colonies TA1537” value ([2]; S9 mix −, dose 62 μg/plate) of the same compound?
**A.** Its value is 8.

**Q.** And the “Number of revertant colonies TA1537” value ([2]; S9 mix −, dose 185 μg/plate)?
**A.** The value was 7.

**Q.** And the “Number of revertant colonies TA1537” value ([2]; S9 mix −, dose 556 μg/plate)?
**A.** The value was 2.

**Q.** And the “Number of revertant colonies TA1537” value ([2]; S9 mix −, dose 1667 μg/plate)?
**A.** The value was 3.

**Q.** What about the “Number of revertant colonies TA1537” value ([2]; S9 mix −, dose 5000 μg/plate) of the same compound?
**A.** Its value is 2.

**Q.** What about the “Number of revertant colonies TA100” value ([3]; S9 mix +, dose 6.9 μg/plate) of the same compound?
**A.** The value was 134.

**Q.** What about the “Number of revertant colonies TA100” value ([3]; S9 mix +, dose 21 μg/plate) of the same compound?
**A.** The value was 123.

**Q.** What about the “Number of revertant colonies TA100” value ([3]; S9 mix +, dose 62 μg/plate) of the same compound?
**A.** Its value is 108.

**Q.** What about the “Number of revertant colonies TA100” value ([3]; S9 mix +, dose 185 μg/plate) of the same compound?
**A.** The value was 103.

**Q.** And the “Number of revertant colonies TA100” value ([3]; S9 mix +, dose 556 μg/plate)?
**A.** Its value is 99.

**Q.** What about the “Number of revertant colonies TA100” value ([3]; S9 mix +, dose 1667 μg/plate) of the same compound?
**A.** Its value is 67.

**Q.** And the “Number of revertant colonies TA100” value ([3]; S9 mix +, dose 5000 μg/plate)?
**A.** The value was 43.

**Q.** And the “Number of revertant colonies TA100” value ([3]; S9 mix −, dose 6.9 μg/plate)?
**A.** The value was 88.

**Q.** What about the “Number of revertant colonies TA100” value ([3]; S9 mix −, dose 21 μg/plate) of the same compound?
**A.** Its value is 91.

**Q.** What about the “Number of revertant colonies TA100” value ([3]; S9 mix −, dose 62 μg/plate) of the same compound?
**A.** The value was 93.

**Q.** And the “Number of revertant colonies TA100” value ([3]; S9 mix −, dose 185 μg/plate)?
**A.** The value was 92.

**Q.** And the “Number of revertant colonies TA100” value ([3]; S9 mix −, dose 556 μg/plate)?
**A.** Its value is 59.

**Q.** And the “Number of revertant colonies TA100” value ([3]; S9 mix −, dose 1667 μg/plate)?
**A.** Its value is 29.

**Q.** What about the “Number of revertant colonies TA100” value ([3]; S9 mix −, dose 5000 μg/plate) of the same compound?
**A.** The value was 12.

**Q.** And the “Number of revertant colonies WP2uvrA” value ([4]; S9 mix +, dose 6.9 μg/plate)?
**A.** Its value is 22.

**Q.** What about the “Number of revertant colonies WP2uvrA” value ([4]; S9 mix +, dose 21 μg/plate) of the same compound?
**A.** Its value is 22.

**Q.** And the “Number of revertant colonies WP2uvrA” value ([4]; S9 mix +, dose 62 μg/plate)?
**A.** The value was 21.

**Q.** And the “Number of revertant colonies WP2uvrA” value ([4]; S9 mix +, dose 185 μg/plate)?
**A.** The value was 21.

**Q.** What about the “Number of revertant colonies WP2uvrA” value ([4]; S9 mix +, dose 556 μg/plate) of the same compound?
**A.** Its value is 18.

**Q.** What about the “Number of revertant colonies WP2uvrA” value ([4]; S9 mix +, dose 1667 μg/plate) of the same compound?
**A.** Its value is 21.

**Q.** What about the “Number of revertant colonies WP2uvrA” value ([4]; S9 mix +, dose 5000 μg/plate) of the same compound?
**A.** The value was 19.

**Q.** What about the “Number of revertant colonies WP2uvrA” value ([4]; S9 mix −, dose 6.9 μg/plate) of the same compound?
**A.** Its value is 23.

**Q.** What about the “Number of revertant colonies WP2uvrA” value ([4]; S9 mix −, dose 21 μg/plate) of the same compound?
**A.** Its value is 15.

**Q.** And the “Number of revertant colonies WP2uvrA” value ([4]; S9 mix −, dose 62 μg/plate)?
**A.** Its value is 23.

**Q.** And the “Number of revertant colonies WP2uvrA” value ([4]; S9 mix −, dose 185 μg/plate)?
**A.** The value was 20.

**Q.** And the “Number of revertant colonies WP2uvrA” value ([4]; S9 mix −, dose 556 μg/plate)?
**A.** The value was 22.

**Q.** What about the “Number of revertant colonies WP2uvrA” value ([4]; S9 mix −, dose 1667 μg/plate) of the same compound?
**A.** Its value is 19.

**Q.** And the “Number of revertant colonies WP2uvrA” value ([4]; S9 mix −, dose 5000 μg/plate)?
**A.** The value was 14.

**Q.** CC(C)(OCc1cc(F)cc(-c2cc(N)nn2-c2ccc(F)cc2)c1)C(F)(F)F [Metabolite A, reference compound] was tested. Which “potential to induce reverse mutations” value ([1]; TA98, in the presence of S9 mix) did it give?
**A.** Its value is “had potential to induce reverse mutations”.

**Q.** What about the “potential to induce reverse mutations” value ([2]; TA1537, in the presence of S9 mix) of the same compound?
**A.** The value was “had potential to induce reverse mutations”.
